Where “and” joins values, the source holds several entries; their conditions need not be identical. Equal values may be shown once.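 Protocol summary: plate cells (96-well), add compound at 5 concentrations, incubate 48 h, interpolate endpoints linearly. The concentration for 50% growth inhibition is given as GI50. TGI denotes the concentration required for complete inhibition of growth.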
Legend:
Assay in all cases: DTP human tumour cell line panel, 48 h
M14 melanoma = test system: M14 melanoma
SNB-75 CNS = test system: SNB-75 CNS
HCT-15 colon = test system: HCT-15 colon
SN12C renal = test system: SN12C renal
CAKI-1 renal = test system: CAKI-1 renal
OVCAR-8 ovarian = test system: OVCAR-8 ovarian
ACHN renal = test system: ACHN renal
K-562 leukemia = test system: K-562 leukemia
MDA-MB-231 breast = test system: MDA-MB-231 breast

Row | Compound | GI50 (M14 melanoma) | TGI (M14 melanoma) | GI50 (SNB-75 CNS) | TGI (SNB-75 CNS) | GI50 (HCT-15 colon) | TGI (HCT-15 colon) | GI50 (SN12C renal) | TGI (SN12C renal) | GI50 (CAKI-1 renal) | TGI (CAKI-1 renal) | GI50 (OVCAR-8 ovarian) | TGI (OVCAR-8 ovarian) | GI50 (ACHN renal) | TGI (ACHN renal) | GI50 (K-562 leukemia) | TGI (K-562 leukemia) | GI50 (MDA-MB-231 breast) | TGI (MDA-MB-231 breast)
1 | N[C@@H]1CCCC[C@@H]1N.O=P([O-])([O-])CN(CCN(CP(=O)([O-])[O-])CP(=O)([O-])[O-])CP(=O)([O-])[O-].[Pt+2] | > 25 µM | > 25 µM | > 25 µM | > 25 µM | > 25 µM | > 25 µM | > 25 µM | > 25 µM | > 25 µM | > 25 µM | > 25 µM | > 25 µM | > 25000 nM | > 25 µM | > 25 µM | > 25 µM |  | 
2 | CC(=O)O/N=C(/C)c1ccccc1O |  | > 100 µM |  | > 100 µM |  |  |  | > 100 µM |  | > 100 µM |  | > 100 µM |  | > 100 µM |  | > 100 µM |  | 
3 | CCCCCCCCCCCCC(O)c1ccc(C#CCCCCCCCCCO)o1 (stereo unspecified) | 17.4 µM | 31.9 µM | 34.1 µM | 70.1 µM | 18.2 µM | 36.8 µM | 18.7 µM | 33.2 µM | 18.6 µM | 33.1 µM | 16.5 µM | 33.6 µM | 18800 nM | 33.5 µM | 3.73 µM | 22.6 µM | 20400 nM | 36.2 µM
4 | c1ccc(NCn2cnc3ccccc32)cc1 |  |  |  | > 100 µM |  | > 100 µM |  | > 100 µM |  |  |  | > 100 µM |  | > 100 µM |  | > 100 µM |  | 
5 | COc1ccc(OC)c(N2CC(N)C2=O)c1 (stereo unspecified) |  | > 100 µM |  | > 100 µM |  | > 100 µM |  | > 100 µM |  |  |  | > 100 µM |  | > 100 µM |  | > 100 µM |  | 
6 | COc1ccc(C)cc1-c1cc(Sc2ccccc2)c(-c2cc(C)ccc2OC)o1 |  | > 31.6 µM |  | > 31.6 µM |  | > 31.6 µM |  | > 31.6 µM |  | > 31.6 µM |  | > 31.6 µM |  | > 31.6 µM |  | > 31.6 µM |  | 
7 | CCCCCCCCCCCCCCCC[N+](C)(C)Cc1ccccc1 | 1.2 µM | 2.49 µM | 1.34 µM | 2.76 µM | 2.86 µM and 3.24 µM | 15.8 µM and > 30.4 µM |  |  | 9.52 µM and 3.74 µM | 35.6 µM and 21.7 µM |  |  | 2430 nM and 2360 nM | 7.96 µM and 6.53 µM |  |  | 1380 nM | 3.32 µM
8 | CCc1c(OC(C)=O)c2c(NC3OCC(OC(C)=O)C(OC(C)=O)C3OC(C)=O)nc(SC)nc2oc1=O (stereo unspecified) |  | > 100 µM |  | > 100 µM |  | > 100 µM |  | > 100 µM |  | > 100 µM |  | > 100 µM |  | > 100 µM |  | > 100 µM |  | 
9 | CC1(C)OC1COc1c2occc2cc2ccc(=O)oc12 (stereo unspecified) |  | > 100 µM |  | > 100 µM |  | > 100 µM |  | > 100 µM |  | > 100 µM |  | > 100 µM |  | > 100 µM |  | > 100 µM |  | > 100 µM
10 | CN(C)CC1CC/C(=C\c2ccc(O)cc2)C1=O (stereo unspecified) |  | 4.95 µM |  | 25.8 µM |  | 5.48 µM |  | 14 µM |  | 3.24 µM |  | 14.6 µM |  | 10.7 µM |  | 5.76 µM |  | 9.22 µM
11 | CC(=O)NNc1nc(C)c(C(=O)/C=C/c2ccc(NC(C)=O)cc2)s1 |  |  |  | > 100 µM |  | > 100 µM |  | > 100 µM |  | > 100 µM |  | > 100 µM |  | > 100 µM |  | > 100 µM |  | 
12 | CCCOc1cc2ccccc2cc1C(=O)Nc1nc(N)c2c(ccc3nccc32)[nH]1 | 0.0405 µM | 1.08 µM |  |  | 0.0444 µM | 1.31 µM | 1.42 µM | 3.22 µM | 0.62 µM | 3.31 µM | 0.203 µM | 1.69 µM | 64.1 nM | 2.56 µM | 0.0339 µM | 1.26 µM | 1060 nM | 2.85 µM
13 | O=c1ccc2ccccc2cc1[O-].O=c1ccc2ccccc2cc1[O-].[O]=[U+2]=[O] | 16.9 µM | 54.5 µM | 14 µM | 32.8 µM | 17.6 µM | > 100 µM | 23.5 µM | 64.1 µM | 9.44 µM | 51.9 µM | 8.83 µM | 59.9 µM | 14200 nM | 33.1 µM | 6.75 µM | > 100 µM |  | 
14 | COc1nc(NC2OC(COC(C)=O)C(OC(C)=O)C(OC(C)=O)C2OC(C)=O)c2c(OC(C)=O)cc(=O)oc2n1 (stereo unspecified) |  | > 100 µM |  | > 100 µM |  | > 100 µM |  | > 100 µM |  | > 100 µM |  | > 100 µM |  | 29.6 µM |  | > 100 µM |  | 
15 | CN(C)CCn1c2c3ccccc3ccc2c2oc(=O)c3ccccc3c21 |  | 19.1 µM |  | 9.94 µM |  | 46.9 µM |  |  |  | 25.9 µM |  |  |  | 18.4 µM |  | > 100 µM |  | 
16 | Oc1[nH]c2ccccc2c1N=Nc1nc(-c2ccc(Br)cc2)cs1 |  | 59.2 µM |  | 46.6 µM |  | 68.3 µM |  | 83.2 µM |  | 39.9 µM |  | 35.8 µM |  | 49.1 µM |  |  |  | 62.5 µM
17 | COC(=O)C(CCCN1C(=O)c2ccccc2C1=O)C(=O)OC |  | > 100 µM |  | > 100 µM |  | > 100 µM |  | > 100 µM |  | > 100 µM |  | > 100 µM |  | > 100 µM |  | > 100 µM |  | 
18 | CCCCN(CCCC)C(=O)C(=O)C(C(=O)c1ccc(OC)cc1)c1ccc(OC)cc1 (stereo unspecified) |  | > 100 µM |  |  |  | > 100 µM |  | > 100 µM |  | > 100 µM |  | > 100 µM |  | > 100 µM |  | > 100 µM |  | 
